Source: PMC6688997 (Nature Communications, 2019)

Tests used:
FLT1 = molecular target: T1, FLT1 (Homo sapiens, UniProt P17948); experiment: Kinase assay, ATP Km; format: biochemical
T1 construct: purchased Carna Biosciences

[1] = Phase I study, plasma concentration; format: in vivo, human; conditions: by conversion
EPHA2 = EPHA2 (Homo sapiens, UniProt P29317); experiment: Kinase assay, 1 mM ATP; format: biochemical
Method in brief: (§1)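 Substrate and phosphorylated product were resolved by electrophoretic mobility shift off-chip, and inhibition was then fitted to a four-parameter logistic curve to give IC50 estimates.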

PLK3 = molecular target: T2, PLK3 (Homo sapiens, UniProt Q9H4B4); experiment: Kinase assay, 1 mM ATP; format: biochemical
T2 construct: purchased Carna Biosciences
Method in brief: as §1

KDR = molecular target: T3, KDR (Homo sapiens, UniProt P35968); experiment: Kinase assay, 1 mM ATP; format: biochemical
T3 construct: purchased Carna Biosciences
Method in brief: as §1

CaMK4 = CaMK4 (Homo sapiens, UniProt Q16566); experiment: Kinase assay, 1 mM ATP; format: biochemical
Method in brief: as §1

MAPKAPK2 = molecular target: T4, MAPKAPK2 (Homo sapiens, UniProt P49137); experiment: Kinase assay, 1 mM ATP; format: biochemical
T4 construct: purchased Carna Biosciences
Method in brief: as §1

PDGFRβ = molecular target: T5, PDGFRβ (Homo sapiens, UniProt P09619); experiment: Kinase assay, 1 mM ATP; format: biochemical
T5 construct: purchased Carna Biosciences
Method in brief: as §1

RET(Y791F) = molecular target: T6, RET(Y791F) (Homo sapiens, UniProt P07949, Y791F); experiment: Kinase assay, 1 mM ATP; format: biochemical
T6 construct: purchased Carna Biosciences
Method in brief: as §1

ROCK1 = ROCK1 (Homo sapiens, UniProt Q13464); experiment: Kinase assay, 1 mM ATP; format: biochemical
Method in brief: as §1

JNK1 = JNK1 (Homo sapiens, UniProt P45983); experiment: Kinase assay, 1 mM ATP; format: biochemical
Method in brief: as §1

TEC = molecular target: T7, TEC (Homo sapiens, UniProt P42680); experiment: Kinase assay, 1 mM ATP; format: biochemical
T7 construct: purchased Carna Biosciences
Method in brief: as §1

p38δ = p38δ (Homo sapiens, UniProt O15264); experiment: Kinase assay, 1 mM ATP; format: biochemical
Method in brief: as §1

BRSK1 = BRSK1 (Homo sapiens, UniProt Q8TDC3); experiment: Kinase assay, 1 mM ATP; format: biochemical
Method in brief: as §1

p38γ = p38γ (Homo sapiens, UniProt P53778); experiment: Kinase assay, 1 mM ATP; format: biochemical
Method in brief: as §1

CK2α1/β = CK2α1/β (Homo sapiens, UniProt P68400); experiment: Kinase assay, 1 mM ATP; format: biochemical
Method in brief: as §1

HGK = molecular target: T8, HGK (Homo sapiens, UniProt O95819); experiment: Kinase assay, 1 mM ATP; format: biochemical
T8 construct: purchased Carna Biosciences
Method in brief: as §1

AurC = molecular target: T9, AurC (Homo sapiens, UniProt Q9UQB9); experiment: Kinase assay, 1 mM ATP; format: biochemical
T9 construct: purchased Carna Biosciences
Method in brief: as §1

SGK = molecular target: T10, SGK (Homo sapiens, UniProt O00141); experiment: Kinase assay, 1 mM ATP; format: biochemical
T10 construct: purchased Carna Biosciences
Method in brief: as §1

CLK2 = CLK2 (Homo sapiens, UniProt P49760); experiment: Kinase assay, 1 mM ATP; format: biochemical
Method in brief: as §1

FGFR3 = molecular target: T11, FGFR3 (Homo sapiens, UniProt P22607); experiment: Kinase assay, 1 mM ATP; format: biochemical
T11 construct: purchased Carna Biosciences
Method in brief: as §1

RSK3 = RSK3 (Homo sapiens, UniProt Q15349); experiment: Kinase assay, 1 mM ATP; format: biochemical
Method in brief: as §1

LCK = LCK (Homo sapiens, UniProt P06239); experiment: Kinase assay, 1 mM ATP; format: biochemical
Method in brief: as §1

EPHB3 = EPHB3 (Homo sapiens, UniProt P54753); experiment: Kinase assay, 1 mM ATP; format: biochemical
Method in brief: as §1

Erk5 = molecular target: T12, Erk5 (Homo sapiens, UniProt Q13164); experiment: Kinase assay, 1 mM ATP; format: biochemical
T12 construct: purchased Carna Biosciences
Method in brief: as §1

CDK7/CycH/MAT1 = CDK7/CycH/MAT1 (Homo sapiens, UniProt P50613); experiment: Kinase assay, 1 mM ATP; format: biochemical
Method in brief: as §1

CDK5/p25 = CDK5/p25 (Homo sapiens, UniProt Q00535); experiment: Kinase assay, 1 mM ATP; format: biochemical
Method in brief: as §1

EGFR(T790M) = molecular target: T13, EGFR(T790M) (Homo sapiens, UniProt P00533, T790M); experiment: Kinase assay, 1 mM ATP; format: biochemical
T13 construct: purchased Carna Biosciences
Method in brief: as §1

NEK1 = molecular target: T14, NEK1 (Homo sapiens, UniProt Q96PY6); experiment: Kinase assay, 1 mM ATP; format: biochemical
T14 construct: purchased Carna Biosciences
Method in brief: as §1

EGFR(d746-750) = molecular target: T15, EGFR(d746-750) (Homo sapiens, UniProt P00533, DEL746-750); experiment: Kinase assay, 1 mM ATP; format: biochemical
T15 construct: purchased Carna Biosciences
Method in brief: as §1

CDC7/ASK = molecular target: T16, CDC7/ASK (Homo sapiens, UniProt O00311); experiment: Kinase assay, 1 mM ATP; format: biochemical
T16 construct: purchased Carna Biosciences
Method in brief: as §1

CDK6/CycD3 = CDK6/CycD3 (Homo sapiens, UniProt Q00534); experiment: Kinase assay, 1 mM ATP; format: biochemical
Method in brief: as §1

DYRK1A = DYRK1A (Homo sapiens, UniProt Q13627); experiment: Kinase assay, 1 mM ATP; format: biochemical
Method in brief: as §1

PYK2 = molecular target: T17, PYK2 (Homo sapiens, UniProt Q14289); experiment: Kinase assay, 1 mM ATP; format: biochemical
T17 construct: purchased Carna Biosciences
Method in brief: as §1

TSSK1 = molecular target: T18, TSSK1 (Homo sapiens, UniProt Q9BXA7); experiment: Kinase assay, 1 mM ATP; format: biochemical
T18 construct: purchased Carna Biosciences
Method in brief: as §1

DAPK1 = DAPK1 (Homo sapiens, UniProt P53355); experiment: Kinase assay, 1 mM ATP; format: biochemical
Method in brief: as §1

AurB = AurB (Homo sapiens, UniProt Q96GD4); experiment: Kinase assay, ATP Km; format: biochemical
PHKG2 = PHKG2 (Homo sapiens, UniProt P15735); experiment: Kinase assay, ATP Km; format: biochemical

Chain of p38δ (O15264 whole entry): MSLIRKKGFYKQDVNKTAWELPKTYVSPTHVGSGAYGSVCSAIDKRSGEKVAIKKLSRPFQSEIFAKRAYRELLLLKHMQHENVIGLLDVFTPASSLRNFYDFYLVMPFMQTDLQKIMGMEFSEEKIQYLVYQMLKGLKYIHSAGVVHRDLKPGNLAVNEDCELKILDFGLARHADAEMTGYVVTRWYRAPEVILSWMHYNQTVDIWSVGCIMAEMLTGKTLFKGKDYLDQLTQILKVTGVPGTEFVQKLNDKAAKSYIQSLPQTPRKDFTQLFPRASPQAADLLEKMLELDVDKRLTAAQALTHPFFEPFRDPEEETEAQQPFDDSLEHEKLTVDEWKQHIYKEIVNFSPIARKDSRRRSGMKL
T6 sequence (P07949 29-1114 Y791F): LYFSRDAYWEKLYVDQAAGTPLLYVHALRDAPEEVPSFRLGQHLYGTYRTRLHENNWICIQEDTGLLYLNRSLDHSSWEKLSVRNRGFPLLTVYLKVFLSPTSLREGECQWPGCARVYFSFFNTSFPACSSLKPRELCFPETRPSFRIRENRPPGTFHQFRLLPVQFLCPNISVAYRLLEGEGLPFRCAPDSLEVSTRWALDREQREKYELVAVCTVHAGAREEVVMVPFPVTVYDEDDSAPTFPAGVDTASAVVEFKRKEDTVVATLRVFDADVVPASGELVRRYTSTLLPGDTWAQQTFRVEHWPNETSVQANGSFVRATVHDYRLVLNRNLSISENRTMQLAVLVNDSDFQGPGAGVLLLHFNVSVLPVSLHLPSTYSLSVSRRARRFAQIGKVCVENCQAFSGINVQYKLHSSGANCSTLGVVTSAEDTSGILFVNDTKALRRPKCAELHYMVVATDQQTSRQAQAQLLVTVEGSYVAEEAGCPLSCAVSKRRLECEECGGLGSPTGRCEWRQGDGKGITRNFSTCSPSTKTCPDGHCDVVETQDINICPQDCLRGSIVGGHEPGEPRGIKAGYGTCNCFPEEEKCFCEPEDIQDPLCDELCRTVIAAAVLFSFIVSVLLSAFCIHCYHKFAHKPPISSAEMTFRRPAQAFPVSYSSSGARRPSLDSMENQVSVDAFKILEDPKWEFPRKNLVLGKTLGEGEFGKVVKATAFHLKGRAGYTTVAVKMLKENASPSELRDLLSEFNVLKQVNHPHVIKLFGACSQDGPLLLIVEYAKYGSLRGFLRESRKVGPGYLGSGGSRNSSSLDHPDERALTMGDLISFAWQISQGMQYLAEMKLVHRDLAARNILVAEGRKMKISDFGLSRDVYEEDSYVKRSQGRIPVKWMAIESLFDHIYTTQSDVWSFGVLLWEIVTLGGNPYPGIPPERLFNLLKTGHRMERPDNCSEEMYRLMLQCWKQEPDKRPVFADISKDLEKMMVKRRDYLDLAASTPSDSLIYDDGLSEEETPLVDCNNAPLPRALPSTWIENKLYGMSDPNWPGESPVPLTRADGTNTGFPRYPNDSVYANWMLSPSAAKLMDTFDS
T3 sequence (P35968 20-1356): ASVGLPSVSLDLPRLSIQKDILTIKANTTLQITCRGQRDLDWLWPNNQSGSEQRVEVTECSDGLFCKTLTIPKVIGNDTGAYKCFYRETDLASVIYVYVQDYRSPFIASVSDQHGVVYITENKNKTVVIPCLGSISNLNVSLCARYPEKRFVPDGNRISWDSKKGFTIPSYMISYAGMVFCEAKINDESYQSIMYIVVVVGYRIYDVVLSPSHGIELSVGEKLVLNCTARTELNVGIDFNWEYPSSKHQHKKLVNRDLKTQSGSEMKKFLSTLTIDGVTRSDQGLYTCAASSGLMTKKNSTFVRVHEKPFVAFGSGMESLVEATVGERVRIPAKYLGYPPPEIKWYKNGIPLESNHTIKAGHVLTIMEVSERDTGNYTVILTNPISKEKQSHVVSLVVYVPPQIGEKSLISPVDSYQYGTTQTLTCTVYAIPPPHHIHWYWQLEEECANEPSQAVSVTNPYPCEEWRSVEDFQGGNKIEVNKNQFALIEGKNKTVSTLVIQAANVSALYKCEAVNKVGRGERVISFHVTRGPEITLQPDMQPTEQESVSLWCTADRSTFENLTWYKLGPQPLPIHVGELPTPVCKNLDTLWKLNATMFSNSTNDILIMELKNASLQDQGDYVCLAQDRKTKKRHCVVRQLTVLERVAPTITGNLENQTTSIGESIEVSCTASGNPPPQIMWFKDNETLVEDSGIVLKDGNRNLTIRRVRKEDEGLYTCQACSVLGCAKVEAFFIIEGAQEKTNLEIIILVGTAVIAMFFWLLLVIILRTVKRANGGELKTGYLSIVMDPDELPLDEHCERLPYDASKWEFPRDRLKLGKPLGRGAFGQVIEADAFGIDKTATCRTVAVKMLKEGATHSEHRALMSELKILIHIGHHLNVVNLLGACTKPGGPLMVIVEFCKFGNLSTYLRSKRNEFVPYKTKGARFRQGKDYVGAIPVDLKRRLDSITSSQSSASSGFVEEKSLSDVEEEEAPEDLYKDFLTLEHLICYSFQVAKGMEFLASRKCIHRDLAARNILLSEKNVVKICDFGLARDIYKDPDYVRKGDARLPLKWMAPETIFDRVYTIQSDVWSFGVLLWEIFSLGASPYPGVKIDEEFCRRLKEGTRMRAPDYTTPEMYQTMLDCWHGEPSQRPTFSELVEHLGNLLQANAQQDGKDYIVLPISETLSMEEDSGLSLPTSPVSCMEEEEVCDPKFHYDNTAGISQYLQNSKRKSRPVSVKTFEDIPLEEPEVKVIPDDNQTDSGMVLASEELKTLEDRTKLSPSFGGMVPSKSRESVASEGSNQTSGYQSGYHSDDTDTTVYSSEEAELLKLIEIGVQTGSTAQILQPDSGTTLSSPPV
T10 sequence (O00141 whole entry): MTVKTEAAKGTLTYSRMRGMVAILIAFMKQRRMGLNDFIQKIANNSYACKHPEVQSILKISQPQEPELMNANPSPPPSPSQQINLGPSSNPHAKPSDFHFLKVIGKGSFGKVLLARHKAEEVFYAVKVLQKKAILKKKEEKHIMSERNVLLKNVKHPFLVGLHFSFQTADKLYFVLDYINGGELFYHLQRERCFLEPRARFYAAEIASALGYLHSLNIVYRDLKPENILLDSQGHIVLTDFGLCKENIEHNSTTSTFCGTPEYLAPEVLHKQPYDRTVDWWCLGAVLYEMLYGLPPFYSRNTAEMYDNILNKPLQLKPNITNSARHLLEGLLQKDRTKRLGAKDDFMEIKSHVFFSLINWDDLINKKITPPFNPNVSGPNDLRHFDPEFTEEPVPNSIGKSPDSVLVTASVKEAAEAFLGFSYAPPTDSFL
T15 sequence (P00533 with tags, fused parts or gaps DEL746-750 limits assumed): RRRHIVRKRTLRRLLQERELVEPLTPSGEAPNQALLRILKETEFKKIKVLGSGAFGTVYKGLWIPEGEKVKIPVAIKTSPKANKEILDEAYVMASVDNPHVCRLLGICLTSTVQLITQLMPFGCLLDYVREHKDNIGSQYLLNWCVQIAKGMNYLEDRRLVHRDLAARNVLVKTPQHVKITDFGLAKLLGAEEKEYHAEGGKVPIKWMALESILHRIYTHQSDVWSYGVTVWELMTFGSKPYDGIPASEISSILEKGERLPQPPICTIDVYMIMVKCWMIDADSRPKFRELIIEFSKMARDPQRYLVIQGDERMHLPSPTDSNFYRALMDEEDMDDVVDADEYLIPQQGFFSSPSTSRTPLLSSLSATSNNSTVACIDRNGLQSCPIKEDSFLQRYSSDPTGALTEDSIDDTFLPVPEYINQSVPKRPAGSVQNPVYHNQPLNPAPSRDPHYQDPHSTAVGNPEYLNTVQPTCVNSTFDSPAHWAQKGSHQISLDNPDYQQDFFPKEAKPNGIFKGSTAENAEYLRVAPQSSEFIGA
Chain of CDK5/p25 (Q00535 whole entry): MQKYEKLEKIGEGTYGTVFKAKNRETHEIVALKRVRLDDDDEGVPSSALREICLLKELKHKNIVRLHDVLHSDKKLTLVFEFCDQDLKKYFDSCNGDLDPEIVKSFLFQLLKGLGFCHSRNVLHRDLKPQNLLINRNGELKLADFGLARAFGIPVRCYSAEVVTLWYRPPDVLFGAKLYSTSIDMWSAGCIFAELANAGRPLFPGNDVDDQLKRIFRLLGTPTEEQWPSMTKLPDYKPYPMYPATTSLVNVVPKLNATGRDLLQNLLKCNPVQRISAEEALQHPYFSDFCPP
Chain of CDK5/p25 (Q15078 99-307 partner limits assumed): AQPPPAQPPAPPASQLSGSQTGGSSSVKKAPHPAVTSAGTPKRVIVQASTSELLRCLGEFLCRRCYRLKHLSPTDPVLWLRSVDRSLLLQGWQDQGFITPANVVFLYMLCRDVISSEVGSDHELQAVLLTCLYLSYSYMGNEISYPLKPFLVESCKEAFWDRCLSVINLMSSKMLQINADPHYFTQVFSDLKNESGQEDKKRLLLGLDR
Chain of JNK1 (P45983 whole entry): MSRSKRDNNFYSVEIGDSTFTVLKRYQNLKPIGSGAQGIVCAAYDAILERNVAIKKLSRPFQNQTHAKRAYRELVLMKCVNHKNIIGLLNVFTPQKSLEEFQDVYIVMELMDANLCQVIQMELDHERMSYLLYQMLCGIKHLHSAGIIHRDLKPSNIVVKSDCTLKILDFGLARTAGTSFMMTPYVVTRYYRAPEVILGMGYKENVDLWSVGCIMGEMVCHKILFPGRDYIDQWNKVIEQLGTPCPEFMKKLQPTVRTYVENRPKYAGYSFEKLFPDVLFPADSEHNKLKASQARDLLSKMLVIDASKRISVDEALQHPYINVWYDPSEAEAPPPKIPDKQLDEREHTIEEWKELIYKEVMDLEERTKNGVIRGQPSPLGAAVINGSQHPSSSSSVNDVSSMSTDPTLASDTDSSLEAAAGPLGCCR
T9 sequence (Q9UQB9 whole entry): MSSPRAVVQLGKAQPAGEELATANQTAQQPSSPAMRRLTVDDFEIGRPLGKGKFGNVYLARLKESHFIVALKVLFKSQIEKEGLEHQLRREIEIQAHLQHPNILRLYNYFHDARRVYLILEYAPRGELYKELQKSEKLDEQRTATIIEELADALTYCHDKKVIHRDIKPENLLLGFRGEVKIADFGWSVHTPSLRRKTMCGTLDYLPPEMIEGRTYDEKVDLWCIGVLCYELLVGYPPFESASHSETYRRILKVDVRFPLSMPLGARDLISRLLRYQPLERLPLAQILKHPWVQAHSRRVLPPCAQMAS

For C[C@@H](N)COc1ccc(-c2cnc3ccc(N[C@H](C)c4cccc(F)c4)nn23)cc1.O=C(O)CCCCC(=O)O [DS-6051b], the inhibition at 0.04 µM (FLT1) was 2.1%, the “Trough concentration unbound to proteins” value ([1]; 400 mg dosing) was 50 nM and the “Trough concentration unbound to proteins” value ([1]; 600 mg dosing) was 75 nM. The inhibition at 0.2 µM (EPHA2) was -2.2%, the inhibition at 0.2 µM (PLK3) was -3.3% and the inhibition at 0.2 µM (KDR) was -5.4%. It also gave an inhibition at 0.2 µM (CaMK4) of -3.3%, an inhibition at 0.2 µM (MAPKAPK2) of -8.5% and an inhibition at 0.2 µM (PDGFRβ) of 3.1%. The inhibition at 0.2 µM (RET(Y791F)) was -4.3%, the inhibition at 0.2 µM (ROCK1) was -4.5% and the inhibition at 0.2 µM (JNK1) was -3.3%. It also gave an inhibition at 0.2 µM (TEC) of -1.2%, an inhibition at 0.2 µM (p38δ) of -1.3% and an inhibition at 0.2 µM (BRSK1) of -4.8%. For the same molecule, the inhibition at 0.2 µM (p38γ) was 0.224%, the inhibition at 0.2 µM (CK2α1/β) was -12.2% and the inhibition at 0.2 µM (HGK) was -8%. The inhibition at 0.2 µM (AurC) was -19%, the inhibition at 0.2 µM (SGK) was -3.8% and the inhibition at 0.2 µM (CLK2) was -1.1%. The inhibition at 0.2 µM (FGFR3) was 1.3%, the inhibition at 0.2 µM (RSK3) was -3.2% and the inhibition at 0.2 µM (LCK) was 0.27%. For the same molecule, the inhibition at 0.2 µM (EPHB3) was -0.7%, the inhibition at 0.2 µM (Erk5) was 5.2% and the inhibition at 0.2 µM (CDK7/CycH/MAT1) was -0.3%. For the same molecule, the inhibition at 0.2 µM (CDK5/p25) was -7.4%, the inhibition at 0.2 µM (EGFR(T790M)) was -1.6% and the inhibition at 0.2 µM (NEK1) was -5.2%. The inhibition at 0.2 µM (EGFR(d746-750)) was -3.4%, the inhibition at 0.2 µM (CDC7/ASK) was 8.5% and the inhibition at 0.2 µM (CDK6/CycD3) was 2.1%. It also gave an inhibition at 0.2 µM (DYRK1A) of -11.4%, an inhibition at 0.2 µM (PYK2) of 8.9% and an inhibition at 0.2 µM (TSSK1) of -2.6%. For the same molecule, the inhibition at 0.2 µM (DAPK1) was -0.6%, the inhibition at 0.04 µM (AurB) was 63.8% and the inhibition at 0.04 µM (PHKG2) was 87.4%.
